# Results published in patent US6864217B2, “Herbicidal compositions with substituted phenylsulfonylureas for controlling weeds in rice” (Hoechst Schering AgrEvo GmbH, priority 1998, dated 2005).
# Where two headings read alike, the source gives them in different places.
# Experiments:
# Echinochloa crusgalli [1] = test: Table 17 field trial, treatment at the 2 leaf stage: weed control; assay type: in vivo; conditions: 14 days after application
# Source text: (§1) Field trial: Treatment at the 2 leaf stage, evaluation 14 days after the application.
# Oryza sativa [2] = test: Table 17 field trial, treatment at the 2 leaf stage: rice damage; assay type: in vivo; conditions: 14 days after application
# Source text: as §1
# Cyperus serotinus [3] = test: Table 21 field trial, treatment at the 2 leaf stage: weed control; assay type: in vivo; conditions: 28 days after application
# Source text: (§2) Field trial: Treatment at the 2 leaf stage, evaluation 28 days after the application.
# Oryza sativa [4] = test: Table 21 field trial, treatment at the 2 leaf stage: rice damage; assay type: in vivo
# Source text: as §2
# Echinochloa crusgalli [5] = test: Table 6 field trial, treatment at the 1-2 leaf stage: weed control; assay type: in vivo; conditions: 28 days after application
# Procedure: (§9) The examples mentioned below were carried out in the greenhouse, and in some instances, in field trials.
# Oryza sativa [6] = test: Table 6 field trial, treatment at the 1-2 leaf stage: rice damage; assay type: in vivo; conditions: in vivo
# Procedure: as §9
# Sagittaria pygmaea = test: Table 22 field trial, treatment: 1-2 leaf stage: weed control; assay type: in vivo; conditions: 28 days after application
# Source text: Field trial: Treatment: 1-2 leaf stage, evaluation 28 days after the application.
# Echinochloa crusgalli [7] = test: Table 7 field trial, treatment at the 1-2 leaf stage: weed control; assay type: in vivo; conditions: 28 days after application
# Procedure: as §9
# Marsilea crenata = test: as above; assay type: in vivo; conditions: 28 days after application
# Procedure: as §9
# Oryza sativa [8] = test: Table 7 field trial, treatment at the 1-2 leaf stage: rice damage; assay type: in vivo; conditions: 28 days after application
# Procedure: as §9
# Echinochloa crusgalli [9] = test: Table 8 greenhouse trial, treatment at the 1-2 leaf stage: weed control; assay type: in vivo; conditions: 22 days after application
# Source text: (§3) Seeds or rhizome pieces of mono- and dicotyledonous weed plants are placed into sandy loam soil in plastic pots, covered with soil and grown in a greenhouse under good growth conditions (temperature, atmospheric humidity, water supply). Weeds which are encountered in the cultivation of rice are cultivated in pots in which the water level is up to 2 cm over the soil surface. […] The active compound combinations according to the invention, formulated as wettable powders or emulsion concentrates, and, in parallel experiments, the correspondingly formulated individual active compounds are sprayed onto the green parts of the plants at different dosages using an amount of water of 300 to 600 l/ha (converted), and, after about 3 to 4 weeks of the test plants in the greenhouse under optimum growth conditions (temperature, atmospheric humidity, water supply), the effect of the preparations is evaluated visually in comparison to untreated controls. In the case of rice or weeds which are encountered in the cultivation of rice, the active compounds are also added directly to the water for irrigation (application analogous to the so-called granules application) or sprayed onto plants and added to the water for irrigation. The experiments were designed with several, up to five, repetitions. The herbicidal compositions according to the invention also have good herbicidal post-emergence activity against a broad spectrum of economically important weed grasses and broad-leaved weeds.
# Oryza sativa [10] = test: Table 8 greenhouse trial, treatment at the 1-2 leaf stage: rice damage; assay type: in vivo; conditions: 22 days after application
# Source text: as §3
# Ipomoea hederacea = test: Table 20 field trial, treatment at the 4-6 leaf stage: weed control; assay type: in vivo; conditions: 28 days after application
# Source text: (§4) Field trial: Treatment at the 4-6 leaf stage, evaluation 28 days after the application.
# Oryza sativa [11] = test: Table 20 field trial, treatment at the 4-6 leaf stage: rice damage; assay type: in vivo; conditions: 28 days after application
# Source text: as §4
# Polygonum convolvulus = test: Table 25 field trial, treatment at the 3 leaf stage: weed control; assay type: in vivo; conditions: 33 days after application
# Source text: (§5) Field trial: Treatment at the 3 leaf stage, evaluation 33 days after the application.
# Oryza sativa [12] = test: Table 25 field trial, treatment at the 3 leaf stage: rice damage; assay type: in vivo; conditions: 33 days after application
# Source text: as §5
# Cyperus serotinus [13] = test: Table 19 field trial, treatment at the 2 leaf stage: weed control; assay type: in vivo; conditions: 14 days after application
# Source text: as §1
# Oryza sativa [14] = test: Table 19 field trial, treatment at the 2 leaf stage: rice damage; assay type: in vivo; conditions: 14 days after application
# Source text: as §1
# Cyperus iria = test: Table 24 field trial, treatment by the pre-emergence method: weed control; assay type: in vivo; conditions: 400 g of ai/ha, 53 days after application
# Source text: (§6) Field trial: Treatment by the pre-emergence method, evaluation 53 days after the application.
# Oryza sativa [15] = test: Table 24 field trial, treatment by the pre-emergence method: rice damage; assay type: in vivo; conditions: in vivo
# Source text: as §6
# Commelina benghalensis = test: Table 26 field trial, treatment at the 3 leaf stage: weed control; assay type: in vivo; conditions: 33 days after application
# Source text: as §5
# Oryza sativa [16] = test: Table 26 field trial, treatment at the 3 leaf stage: rice damage; assay type: in vivo; conditions: 33 days after application
# Source text: as §5
# Cyperus serotinus [17] = test: Table 12 greenhouse trial, treatment at the 1-2 leaf stage: weed control; assay type: in vivo; conditions: 20 days after application
# Procedure: (§7) Seeds or rhizome pieces of mono- and dicotyledonous weed plants are placed into sandy loam soil in plastic pots, covered with soil and grown in a greenhouse under good growth conditions (temperature, atmospheric humidity, water supply). Weeds which are encountered in the cultivation of rice are cultivated in pots in which the water level is up to 2 cm over the soil surface. Three weeks after sowing, the test plants are treated at the three-leaf stage. The active compound combinations according to the invention, formulated as wettable powders or emulsion concentrates, and, in parallel experiments, the correspondingly formulated individual active compounds are sprayed onto the green parts of the plants at different dosages using an amount of water of 300 to 600 l/ha (converted), and, after about 3 to 4 weeks of the test plants in the greenhouse under optimum growth conditions (temperature, atmospheric humidity, water supply), the effect of the preparations is evaluated visually in comparison to untreated controls. In the case of rice or weeds which are encountered in the cultivation of rice, the active compounds are also added directly to the water for irrigation (application analogous to the so-called granules application) or sprayed onto plants and added to the water for irrigation. The experiments were designed with several, up to five, repetitions. The herbicidal compositions according to the invention also have good herbicidal post-emergence activity against a broad spectrum of economically important weed grasses and broad-leaved weeds.
# (§8) Greenhouse trial: Treatment at the 1-2 leaf stage, evaluation 20 days after the application.
# Oryza sativa [18] = test: Table 12 greenhouse trial, treatment at the 1-2 leaf stage: rice damage; assay type: in vivo; conditions: greenhouse trial, 20 days after application
# Procedure: as §7, §8
# Echinochloa crusgalli [19] = test: Table 11 greenhouse trial, treatment at the 1-2 leaf stage: weed control; assay type: in vivo; conditions: 20 days after application
# Procedure: as §7, §8
# Oryza sativa [20] = conditions: in vivo
# Procedure: as §7, with “The herbicidal compositions according to the invention also have good herbicidal post-emergence activity against a broad spectrum of economically important weed grasses and broad-leaved weeds.” left out
smiles,measurement,setting,value
"CCOC(=O)C(Cl)Cc1cc(-n2nc(C)n(C(F)F)c2=O)c(F)cc1Cl (racemic) [B38), ethyl (RS)-2-chloro-3-[2-chloro-5-(4-difluoromethyl-4,5-dihydro-3-methyl-5-oxo-1H-1,2,4-,triazol-1-yl)-4-fluorophenyl]propionate]",ECHCG % control,Echinochloa crusgalli [1]; 7.5 g of ai/ha,50%
same,ECHCG % control,Echinochloa crusgalli [1]; 15 g of ai/ha,52%
same,ECHCG % control,Echinochloa crusgalli [1]; 30 g of ai/ha,52%
same,ORYSW % damage,Oryza sativa [2]; 7.5 g of ai/ha,0%
same,ORYSW % damage,Oryza sativa [2]; 15 g of ai/ha,0%
same,ORYSW % damage,Oryza sativa [2]; 30 g of ai/ha,0%
"CCC1(CC2(c3cccc(Cl)c3)CO2)C(=O)c2ccccc2C1=O (racemic) [B71), (RS)-2-[2-(3-chlorophenyl)-2,3-epoxypropyl]-2-ethyl-indane-1,3-dione]",CYPSE % control,Cyperus serotinus [3]; 150 g of ai/ha,55%
same,ORYSW % damage,Oryza sativa [4]; in vivo,4%
"CCCCOCN(C(=O)CCl)c1c(CC)cccc1CC [B1), N-(butoxymethyl)-2-chloro-N-(2,6-diethylphenyl)acetamide]",ECHCG % control,Echinochloa crusgalli [5]; 300 g of ai/ha,81%
same,ECHCG % control,Echinochloa crusgalli [5]; 600 g of ai/ha,89%
same,ORYSW % damage,Oryza sativa [6],0%
"CN(C(=O)COc1nc2ccccc2s1)c1ccccc1 [B5), 2-(2-benzothiazolyloxy)-N-methyl-N-phenylacetamide]",SAGPY % control,Sagittaria pygmaea; 600 g of ai/ha,0%
same,SAGPY % control,Sagittaria pygmaea; 1200 g of ai/ha,0%
same,SAGPY % control,Sagittaria pygmaea; 2400 g of ai/ha,0%
"CCC(=O)Nc1ccc(Cl)c(Cl)c1 [B7), N-(3,4-dichlorophenyl)propanamide]",ECHCG % control,Echinochloa crusgalli [7]; 1000 g of ai/ha,79%
same,ECHCG % control,Echinochloa crusgalli [7]; 2000 g of ai/ha,88%
same,MASCR % control,Marsilea crenata; 1000 g of ai/ha,0%
same,MASCR % control,Marsilea crenata; 2000 g of ai/ha,0%
same,ORYSW % damage,Oryza sativa [8]; 1000 g of ai/ha,0%
same,ORYSW % damage,Oryza sativa [8]; 2000 g of ai/ha,0%
same,ECHCG % control,Echinochloa crusgalli [9]; 1250 g of ai/ha,0%
same,ECHCG % control,Echinochloa crusgalli [9]; 2500 g of ai/ha,0%
same,ECHCG % control,Echinochloa crusgalli [9]; 5000 g of ai/ha,10%
same,ORYSW % damage,Oryza sativa [10]; 1250 g of ai/ha,0%
same,ORYSW % damage,Oryza sativa [10]; 2500 g of ai/ha,0%
same,ORYSW % damage,Oryza sativa [10]; 5000 g of ai/ha,0%
"CC(C)(SC(=O)N1CCCCC1)c1ccccc1 [B9), S-(1-methyl-1-phenylethyl)1-piperidincarbothioate]",CYPSE % control,Cyperus serotinus [3]; 3000 g of ai/ha,45%
same,ORYSW % damage,"Oryza sativa [4]; 3000 g of ai/ha, field trial, 28 days after application",5%
"CCSC(=O)N1CCCCCC1 [B10), S-ethyl hexahydro-1H-azepin-1-carbothioate]",IPOHE % control,Ipomoea hederacea; 4480 g of ai/ha,55%
same,ORYSW % damage,Oryza sativa [11]; 4480 g of ai/ha,0%
"CCN(CC)C(=O)SCc1ccc(Cl)cc1 [B11), S-[(4-chlorophenyl)methyl]diethylcarbamothioate]",IPOHE % control,Ipomoea hederacea; 3300 g of ai/ha,43%
same,ORYSW % damage,Oryza sativa [11]; 3300 g of ai/ha,3%
"COc1cccc(N(C)C(=S)Oc2cccc(C(C)(C)C)c2)n1 [B12), O-[3-(1,1-dimethylethyl)phenyl](6-methoxy-2-pyridinyl)methylcarbamothioate]",CYPSE % control,Cyperus serotinus [3]; 600 g of ai/ha,65%
same,ORYSW % damage,"Oryza sativa [4]; 600 g of ai/ha, field trial, 28 days after application",3%
"CSC(=O)c1c(C(F)F)nc(C(F)(F)F)c(C(=O)SC)c1CC(C)C [B24), S,S′-dimethyl-2-(difluoromethyl)-4-(2-methylpropyl)-6-(trifluoromethyl)-3,5-pyridindicarbothioate]",CYPSE % control,Cyperus serotinus [3]; 60 g of ai/ha,60%
same,ORYSW % damage,Oryza sativa [4]; in vivo,6%
"COc1c(Cl)ccc(Cl)c1C(=O)O [B31), 3,6-dichloro-o-anisic acid]",POLCO % control,Polygonum convolvulus; 240 g of ai/ha,45%
same,POLCO % control,Polygonum convolvulus; 480 g of ai/ha,80%
same,ORYSW % damage,Oryza sativa [12]; 240 g of ai/ha,8%
same,ORYSW % damage,Oryza sativa [12]; 480 g of ai/ha,10%
C#CCN(C)c1c(C#N)cnn1-c1nn2c(c1Cl)CCCC2 [B33b)],CYPSE % control,Cyperus serotinus [13]; 100 g of ai/ha,40%
same,CYPSE % control,Cyperus serotinus [13]; 200 g of ai/ha,50%
same,CYPSE % control,Cyperus serotinus [13]; 400 g of ai/ha,80%
same,ORYSW % damage,Oryza sativa [14]; 100 g of ai/ha,6%
same,ORYSW % damage,Oryza sativa [14]; 200 g of ai/ha,8%
same,ORYSW % damage,Oryza sativa [14]; 400 g of ai/ha,12%
"O=C(O)COc1nc(Cl)c(Cl)cc1Cl [B40), [(3,5,6-trichloro-2-pyridinyl)oxy]acetic acid]",IPOHE % control,Ipomoea hederacea; 420 g of ai/ha,65%
same,ORYSW % damage,Oryza sativa [11]; 420 g of ai/ha,20%
"CC1(C)CON(Cc2ccccc2Cl)C1=O [B44), 2-[(2-chlorophenyl)methyl]-4,4-dimethyl-3-isoxazolidinone]",CYPIR % control,Cyperus iria,30%
same,ORYSW % damage,Oryza sativa [15],0%
"COc1nc(C)nc(NC(=O)NS(=O)(=O)c2ccccc2C(=O)O)n1 [B57), 2-(4-methoxy-6-methyl-1,3,5-triazin-2-ylcarbamoyl-sulfamoyl)benzoic acid]",COMBE % control,Commelina benghalensis; 1 g of ai/ha,20%
same,COMBE % control,Commelina benghalensis; 2 g of ai/ha,68%
same,ORYSW % damage,Oryza sativa [16]; 1 g of ai/ha,0%
same,ORYSW % damage,Oryza sativa [16]; 2 g of ai/ha,0%
"COCCOc1ccccc1S(=O)(=O)NC(=O)Nc1nc(OC)nc(OC)n1 [B60), N-[[(4,6-dimethoxy-1,3,5-triazin-2-yl)amino]carbonyl]-2-(2-methoxyethoxy)benzolsulfonamide]",CYPSE % control,Cyperus serotinus [17]; 15 g of ai/ha,0%
same,CYPSE % control,Cyperus serotinus [17]; 30 g of ai/ha,15%
same,CYPSE % control,Cyperus serotinus [17]; 60 g of ai/ha,15%
same,ORYSW % damage,Oryza sativa [18]; 15 g of ai/ha,0%
same,ORYSW % damage,Oryza sativa [18]; 30 g of ai/ha,0%
same,ORYSW % damage,Oryza sativa [18]; 60 g of ai/ha,5%
"COc1cc(OC)nc(NC(=O)NS(=O)(=O)c2c(Cl)nc3ccccn23)n1 [B61), 2-chloro-N-[[(4,6-dimethoxy-2-pyrimidinyl)amino]-carbonyl]imidazo[1,2-a]pyridine-3-sulfonamide]",ECHCG % control,Echinochloa crusgalli [19]; 8 g of ai/ha,0%
same,ECHCG % control,Echinochloa crusgalli [19]; 15 g of ai/ha,25%
same,ECHCG % control,Echinochloa crusgalli [19]; 30 g of ai/ha,50%
same,ECHCG % control,Echinochloa crusgalli [19]; 60 g of ai/ha,60%
same,ORYSW % damage,Oryza sativa [20],0%
"CC(C)=C1OC(=O)N(c2cc(OC3CCCC3)c(Cl)cc2F)C1=O [B70), 3-(4-chloro-5-cyclopentyloxy-2-fluorophenyl)-5-iso-propylidene-1,3-oxazolidine-2,4-dione]",CYPSE % control,Cyperus serotinus [13]; 150 g of ai/ha,50%
same,CYPSE % control,Cyperus serotinus [13]; 450 g of ai/ha,65%
same,ORYSW % damage,Oryza sativa [14]; 150 g of ai/ha,0%
same,ORYSW % damage,Oryza sativa [14]; 450 g of ai/ha,0%
